In ChEMBL document CHEMBL3045310, “Synthesis of new benzotriazepin-5(2H)-one derivatives of expected antipsychotic activity” (Med Chem Res, 2013) one finds inhibition, Activity and Time data, which are given here for twelve molecules.

Series [1] relates to Mus musculus. Put plainly: Anticonvulsant activity in Mus musculus albino (mouse) assessed as inhibition of PTZ-induced seizure at 3 mg/kg, ip administered 1 hr prior to PTZ-challenge measured after 2 to 4 min relative to control. More on the design: dose 3 mg/kg. Format: functional, organism-based.
The subject of series [2] is Mus musculus. Description: Neurotoxicity against Mus musculus albino (mouse) assessed as inability to climb horizontal screen at 3 mg/kg, ip after 30 min by horizontal screen test relative to control. Format: toxicity, organism-based. The arrangement: dose 3 mg/kg, route intraperitoneal. To be noted: in vivo, 0.5 h.
In series [3] the test system is Mus musculus. Put plainly: Neurotoxicity against Mus musculus albino (mouse) assessed as fall from horizontal screen at 3 mg/kg, ip after 30 min by horizontal screen test relative to control. Format: toxicity, organism-based. More on the design: dose 3 mg/kg, route intraperitoneal. To be noted: in vivo, 0.5 h.
Series [4] has as its system Mus musculus. Put plainly: Neurotoxicity against Mus musculus albino (mouse) at 3 mg/kg, ip after 30 min by rotarod test. Format: toxicity, organism-based. The arrangement: dose 3 mg/kg, route intraperitoneal. To be noted: in vivo, 0.5 h.
The test system of series [5] is Mus musculus. Description: CNS depressant activity in Mus musculus albino (mouse) assessed as immobility time at 3 mg/kg, ip measured after 24 hr by forced swim test (reference value: 120 +/- 5.1 secs). The settings on record: route intraperitoneal. Format: functional.
Series [6] has as its system Mus musculus. Description: Antipsychotic activity in Mus musculus albino (mouse) assessed as ptosis at 3 mg/kg, ip relative to control. To be noted: route intraperitoneal. Format: functional.

Structures are written as SMILES. The source made the active and inactive calls. The calls are words filed in the database; no cut-off is given here.

`CN1c2ccccc2C(=O)NN(c2ccccc2)C1c1ccc(Br)cc1` (configuration not stated): the inhibition result with Mus musculus [1] was “inactive”. The Activity in the series on Mus musculus [2] is on record as 16.7%; with Mus musculus [3], 16.7%; with Mus musculus [4] it was “Toxic”; in the series with Mus musculus [6], 0%. For the same molecule, the Time with Mus musculus [5] amounted to 140 s.

With `CN1c2ccccc2C(=O)NN(c2ccccc2)C1c1ccccc1` (configuration not stated), in the series with Mus musculus [1], the inhibition result is “inactive”. In addition, the Activity in the series on Mus musculus [2] is recorded as 0%; in the series with Mus musculus [3] it was 0%; in the series with Mus musculus [4], “Non-toxic”; in the series on Mus musculus [6], 0%. For the same molecule, in the series on Mus musculus [5], the Time was determined as 118 s.

For `CN1c2ccccc2C(=O)NN(c2ccccc2)C1c1ccc([N+](=O)[O-])cc1` (configuration not stated), in the series on Mus musculus [1], the inhibition result was “inactive”. In addition, the Activity in the series on Mus musculus [2] was 0%; in the series on Mus musculus [3], 0%; in the series on Mus musculus [4], “Non-toxic”; in the series on Mus musculus [6], 50%. For the same molecule, the Time in the series on Mus musculus [5] is reported as 125 s.

For `COc1ccc(C2N(C)c3ccccc3C(=O)NN2c2ccccc2)cc1` (configuration not stated), in the series on Mus musculus [1], the inhibition entry was “inactive”. For the same molecule, the Activity was 0% with Mus musculus [2], 16.7% with Mus musculus [3], “Toxic” with Mus musculus [4] and 75% with Mus musculus [6]. In the series on Mus musculus [5], the Time is listed as 141 s.

For `CN1c2ccccc2C(=O)NN(c2ccccc2)C1c1ccc(Cl)cc1` (configuration not stated), the inhibition entry in the series with Mus musculus [1] was “inactive”. Also, the Activity in the series on Mus musculus [2] is recorded as 33.3%; in the series on Mus musculus [3] it was 33.3%; in the series with Mus musculus [4], “Toxic”; in the series with Mus musculus [6], 50%. In the series with Mus musculus [5], the Time was 156 s.

As for `CN1c2ccccc2C(=O)NN(c2ccccc2)C1c1ccccc1[N+](=O)[O-]` (configuration not stated), in the series on Mus musculus [1], the inhibition entry was “inactive”. In addition, the Activity is 16.7% in the series on Mus musculus [2], 16.7% with Mus musculus [3], “Toxic” in the series on Mus musculus [4] and 0% with Mus musculus [6]. In addition, the Time with Mus musculus [5] came out at 141 s.

As for `COc1cc(C2N(C)c3ccccc3C(=O)NN2c2ccccc2)cc(OC)c1OC` (configuration not stated), the inhibition entry with Mus musculus [1] was “inactive”. Besides, the Activity with Mus musculus [2] is reported as 0%; in the series with Mus musculus [3], 0%; with Mus musculus [4], “Non-toxic”; in the series on Mus musculus [6] it was 50%. Also, in the series with Mus musculus [5], the Time was found to be 135 s.

Turning to `CN1C(=S)N(c2ccccc2)NC(=O)c2ccccc21`, in the series with Mus musculus [1], the inhibition entry was “inactive”. For the same molecule, the Activity was 0% in the series on Mus musculus [2], 0% with Mus musculus [3], “Non-toxic” in the series on Mus musculus [4] and 100% with Mus musculus [6]. Besides, the Time with Mus musculus [5] is 129 s.

Turning to `CN1CN(C(=O)c2ccncc2)NC(=O)c2ccccc21`, the inhibition result in the series with Mus musculus [1] was “inactive”. Also, the Activity in the series on Mus musculus [2] is 16.7%; in the series on Mus musculus [3] it was 33.3%; in the series on Mus musculus [4], “Toxic”; with Mus musculus [6], 100%. Besides, in the series on Mus musculus [5], the Time is 190 s.

With `CN1CN(c2ccccc2)NC(=O)c2ccccc21`, the inhibition result in the series on Mus musculus [1] was “inactive”. Further, the Activity in the series on Mus musculus [2] is on record as 0%; in the series with Mus musculus [3], 50%; with Mus musculus [4] it was “Toxic”; in the series with Mus musculus [6], 100%. Further, the Time in the series on Mus musculus [5] came to 178 s.

Take `CN1CCN(C2=Nc3cc(Cl)ccc3Nc3ccccc32)CC1` [CLOZAPINE]: the inhibition entry in the series on Mus musculus [1] is “inactive”. In addition, the Activity with Mus musculus [2] is on record as 16.7%; in the series on Mus musculus [3], 50%; with Mus musculus [4], “Toxic”; in the series with Mus musculus [6], 100%. Further, in the series on Mus musculus [5], the Time came out at 194 s.

On to `CN1c2ccccc2C(=O)NN(c2ccccc2)C1c1ccc(O)cc1` (configuration not stated), for which, in the series with Mus musculus [1], the inhibition result was “inactive”. In addition, the Activity with Mus musculus [2] is 0%; with Mus musculus [3], 16.7%; in the series with Mus musculus [4], “Toxic”; in the series on Mus musculus [6], 75%. The Time with Mus musculus [5] is reported as 151 s.
